Results from BindingDB's records for doi:10.1016/j.bmcl.2009.03.043 (Vertex Pharmaceuticals, 2009).

Tests used:
[1] = molecular target: 3-phosphoinositide-dependent protein kinase 1 (Homo sapiens) (UniProt O15530); experiment: Inhibition of PDK1
[2] = molecular target: Tyrosine-protein kinase SYK (Homo sapiens) (UniProt P43405); experiment: Inhibition of SYK
[3] = molecular target: Mitogen-activated protein kinase 10 (Homo sapiens, UniProt P53779); experiment: Inhibition of JNK3 by spectrophotometric coupled enzyme assay
Mitogen-activated protein kinase 10, sequence (P53779 whole entry): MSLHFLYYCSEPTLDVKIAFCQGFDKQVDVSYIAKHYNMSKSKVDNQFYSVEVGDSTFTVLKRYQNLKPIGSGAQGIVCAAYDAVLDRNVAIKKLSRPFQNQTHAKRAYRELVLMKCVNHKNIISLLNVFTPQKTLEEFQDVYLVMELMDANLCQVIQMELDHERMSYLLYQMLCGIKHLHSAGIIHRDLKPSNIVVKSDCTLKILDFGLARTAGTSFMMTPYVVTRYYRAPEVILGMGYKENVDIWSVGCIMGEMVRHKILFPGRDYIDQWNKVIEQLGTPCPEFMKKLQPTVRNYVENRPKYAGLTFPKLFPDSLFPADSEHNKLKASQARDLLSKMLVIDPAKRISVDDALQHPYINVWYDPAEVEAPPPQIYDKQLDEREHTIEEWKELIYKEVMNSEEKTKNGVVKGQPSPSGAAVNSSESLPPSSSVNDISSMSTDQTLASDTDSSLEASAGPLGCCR

Row | Ki [1] | Ki [2] | Ki [3] | SMILES
1 | > 30 µM | > 30 µM |  | Cc1ccc2c(c1)N(Cc1cc(F)cc3c1OCOC3)C(=O)C2N=O (configuration not stated) [1-((6-fluoro-4H-benzo[d][1,3]dioxin-8-yl)methyl)-3-(hydroxyimino)-6-methylindolin-2-one]
2 |  |  | > 10 µM | Cc1cccc(CN2C(=O)C(N=O)c3cc(C)ccc32)c1 (configuration not stated) [3-(hydroxyimino)-5-methyl-1-(3-methylbenzyl)indolin-2-one]
3 |  |  | > 10 µM | O=NC1C(=O)N(Cc2ccccc2)c2ccc(F)cc21 (configuration not stated) [1-benzyl-5-fluoro-3-(hydroxyimino)indolin-2-one]
4 |  |  | > 10 µM | Cc1ccc2c(c1)C(N=O)C(=O)N2Cc1ccccc1 (configuration not stated) [1-benzyl-3-(hydroxyimino)-5-methylindolin-2-one]
5 |  |  | > 10 µM | O=NC1C(=O)N(Cc2ccccc2[N+](=O)[O-])c2ccccc21 (configuration not stated) [3-(hydroxyimino)-1-(2-nitrobenzyl)indolin-2-one]
6 |  |  | > 10 µM | O=NC1C(=O)N(Cc2ccccc2)c2ccccc21 (configuration not stated) [1-benzyl-3-(hydroxyimino)indolin-2-one]
